{"source": "patent US20180298344A1", "about": "“Realistic Humanized Model of Disease Matrix Environment for Evaluation of Therapeutic Reversal or Cell Fate” (Yale University, priority 2017, published 2018)", "key": {"[1]": {"system": "human microvascular pericytes (PC)", "assay": "Short term (7 day) myofibroblast differentiation of PC on low, medium, high stiffness hydrogels with TGF-β1 or bleomycin activation", "assay_type": "cell-based", "details": "7 days", "description": "(§1) Human microvascular PC were isolated from a readily available and nearly inexhaustible source, human placental tissue, by microvascular segment explant outgrowth (Sava et al., Microcirculation, 2015, 22:54-67; Ayres-Sander et al., PLoS One, 2013, 8:e60025; Lauridsen et al., FASEB, 2014, 28:1166-1180; Maier et al., Microcirculation, 2010, 17:367-380). Human placental tissue was segmented, digested with collagenase, and the resulting cells were cultured in M199 (Gibco, Grand Island, NY, USA) medium supplemented with 20% FBS (Hyclone Laboratories, Logan, Utah, USA), and 1% penicillin-streptomycin (Gibco). Isolated pericytes were screened by flow cytometry against NG2 (H-300, Santa Cruz Biotechnology), CD90 (K-15, Santa Cruz), CD146 (P1H12, Biolegend, San Diego, Calif., USA), PDGFR-β (18A2, Santa Cruz), α-SMA (1A4, Santa Cruz), SMMHC (N-16, Santa Cruz), CD31 (C20, Santa Cruz), CD34 (581, Sigma) and CD45 (MEM-28, Sigma). As negative control, PC were incubated with isotype matched IgG. Samples were run on a Stratedigm S1000EXi Flow Cytometer (Stratedigm, San Jose, Calif. USA) and analyzed with FlowJo software (Tree Star, Ashland, Oreg., USA).\n(§2) Polyacrylamide hydrogels were prepared as previously described (Tse and Engler, Current protocols in cell biology, editorial board, Juan S. Bonifacino et al, 2010, Chapter 10, Unit 10-16). Briefly, amino-silanated coverslips were prepared by treatment with 0.1M NaOH, followed by 3-aminopropyltriethoxysilane (Sigma), and crosslinked with glutaraldehyde. Chloro-silanated coverslips were treated with dichlorodimethylsilane (Sigma). Polyacrylamide solutions of varying stiffness were prepared by altering the concentrations of acrylamide (Bio-Rad, Hercules, Calif., USA) and bis-acrylamide (Bio-Rad). Ammonium persulfate (Sigma) and tetramethylethylenediamine (Bio-Rad) were used as cross-linkers. The solution was placed between the chloro-silanated and amino-silanated coverslips and cross-linked under ambient lighting for 30 minutes, after which the amino-silanated slide, containing the hydrogel, was hydrated in PBS. The ECM components were chemically conjugated to the polyacrylamide hydrogel using the naturally occurring amine residues on the proteins. Sulfa-SANPAH (Thermo Fisher, Grand Island, N.Y., USA) was added in 50 mM 4-(2-hydroxyethyl)-1-piperazineethanesulfonic acid buffer (Sigma) and the hydrogels were placed under UV light (365 nm, 10 mW/cm^2) for 15 minutes, and incubated overnight with either 0.5 mg/mL solubilized healthy or IPF human lung ECM, or isolated ECM proteins (0.1 mg/mL human plasma fibronectin (Millipore, Billerica, Mass., USA) and 0.1 mg/mL collagen I (Sigma). Validation of protein conjugation was performed by tagging ECM with NHS-Fluorescein (5/6-carboxyfluorescein succinimidyl ester), dialyzing overnight, and rinsed extensively (Syed et al., J Vis, Exp, 2015, 97).\nFor short term (7 day) differentiation studies, PC (passage 3-7) were seeded on healthy or IPF lung tissue slices, polyacrylamide hydrogels, or 25 mm glass coverslips (VWR) at 100×10^3 cells per sample and activated with control media (non-activated), or 1 ng/mL TGF-β1 (PeproTech, Rocky Hill, N.J., USA) for 7 days (18, 19). For bleomycin activation, the cells were activated with 1 μg/mL bleomycin sulfate (Cayman Chemical, Ann Arbor, Mich.) for 1 day and the media was replaced with non-activated media for the remaining 6 days (Sava et al., Microcirculation, 2015, 22:54-67; Sterling et al., J Bio Chem, 1983, 258:14438-14444). TGF-β1 and bleomycin concentrations were based on reports consistent with activation of fibroblasts (Sava et al., Microcirculation, 2015, 22:54-67; Maroni and Davis, Bio Reprod, 2012, 87:127). Treatment with CCG-1423 (Sigma) was performed at day 0 for the full 7 days, and labeled as early treatment, or at day 7 and performed for 7 days, and labeled as late treatment. […]"}, "[2]": {"system": "idiopathic pulmonary fibrosis patients", "details": "IPF patients; cited from earlier work"}, "[3]": {"system": "human microvascular pericytes (PC)", "assay": "PC on high stiffness polyacrylamide hydrogels treated with CCG-1423; α-SMA by flow cytometry, F-Actin staining", "assay_type": "cell-based", "details": "for detectable quantities of α-SMA: high-stiffness hydrogels, versus naive PC; for detectable quantities of α-SMA / decrease in expression of α-SMA: flow cytometry; for decrease in expression of α-SMA: 1.0 nM", "description": "as §1, §2\nFor short term (7 day) differentiation studies, PC (passage 3-7) were seeded on healthy or IPF lung tissue slices, polyacrylamide hydrogels, or 25 mm glass coverslips (VWR) at 100×10^3 cells per sample and activated with control media (non-activated), or 1 ng/mL TGF-β1 (PeproTech, Rocky Hill, N.J., USA) for 7 days (18, 19). For bleomycin activation, the cells were activated with 1 μg/mL bleomycin sulfate (Cayman Chemical, Ann Arbor, Mich.) for 1 day and the media was replaced with non-activated media for the remaining 6 days (Sava et al., Microcirculation, 2015, 22:54-67; Sterling et al., J Bio Chem, 1983, 258:14438-14444). […]"}, "[4]": {"system": "fibrosis in mouse models", "details": "in vivo mouse models; cited from earlier work"}, "[5]": {"details": "low, medium, high stiffness hydrogels with fibronectin and collagen I, TGF-β1 1 ng/mL 7 days or bleomycin 1 μg/mL 1 day, flow cytometry"}}, "data": [{"compound": "bleomycin sulfate", "values": [{"measurement": "vimentin expression compared to non-activated PC on substrates of the same stiffness", "setting": "[1]; [5]", "value": "significantly increased"}, {"measurement": "α-SMA expression compared to non-activated PC on substrates of the same stiffness", "setting": "[1]; [5]", "value": "significantly increased"}, {"measurement": "cell area and elongation (aspect ratio)", "setting": "[1]; medium and high stiffness substrates", "value": "largest area and elongation"}]}, {"compound": "Cc1ccc(=O)n(-c2ccccc2)c1", "note": "[pirfenidone]", "values": [{"measurement": "decline in forced vital capacity", "setting": "[2]", "value": "reducing the decline in forced vital capacity"}]}, {"compound": "CC(ONC(=O)c1cc(C(F)(F)F)cc(C(F)(F)F)c1)C(=O)Nc1ccc(Cl)cc1", "note": "(stereo not shown) [CCG-1423]", "values": [{"measurement": "detectable quantities of α-SMA", "setting": "[3]; CCG-1423 treatment at day 0 of PC culture, P<0.001", "value": "significantly reduced"}, {"measurement": "detectable quantities of α-SMA", "setting": "[3]; CCG-1423 treatment at day 7 of PC culture, P=0.039", "value": "significantly reduced"}, {"measurement": "cell F-Actin architecture", "setting": "[3]; F-Actin staining, high stiffness hydrogel", "value": "did not alter"}, {"measurement": "decrease in expression of α-SMA", "setting": "[3]; early time-point (day 0) treatment for 7 days, high stiffness hydrogel", "value": "38.2±4.2", "unit": "%"}, {"measurement": "decrease in expression of α-SMA", "setting": "[3]; late time point (day 7) treatment for additional 7 days, high stiffness hydrogel", "value": "20.4±8.0", "unit": "%"}, {"measurement": "prevention of fibrosis", "setting": "[4]", "value": "effective in preventing fibrosis"}]}]}
